Patent US6472401B2, “Methods for the treatment of vascular disorders” (Schering Corporation, priority 1999, dated 2002)
Read-outs that look alike come from different tables or passages of the source.

Legend:
[1] = Administration of antihistamine to patients suffering from clinical depression (Example 2); conditions: for recurrence of symptoms of depression: patients known to have suffered from depression, not currently experiencing symptoms, administered indefinitely; for reduction of symptoms of depression: patients suffering from depression; for recurrence or worsening of symptoms of depression: responders continue treatment at their respective dosage level
Description: Patients suffering from clinical depression are administered a non-sedating antihistamine (loratadine) or a low-sedating antihistamine (cetirizine) to relieve the symptoms of depression. Six treatment groups are contemplated.

[2] = for recurrence of symptoms of depression: administered indefinitely
[3] = patients known to have suffered from depression and subject to allergic rhinitis, no current symptoms of either
[4] = patients known to have suffered from depression and suffering from allergic rhinitis, no current depression symptoms
[5] = patients suffering from depression and allergic rhinitis
[6] = patients suffering from depression, subject to allergic rhinitis but not currently suffering from it
[7] = responders subject to allergic rhinitis but without current rhinitis symptoms continue treatment at their respective dosage level
[8] = responders suffering from allergic rhinitis continue treatment at their respective dosage level

Row | Compound | recurrence of symptoms of depression [1] | reduction of symptoms of depression [1] | recurrence or worsening of symptoms of depression [1] | recurrence of symptoms of depression [2, 3] | recurrence of symptoms of depression [2, 4] | reduction of symptoms of depression [2, 5] | reduction of symptoms of depression [2, 6] | recurrence or worsening of symptoms of depression [2, 7] | recurrence or worsening of symptoms of depression [2, 8]
1 | O=C(O)COCCN1CCN(C(c2ccccc2)c2ccc(Cl)cc2)CC1 (stereo not drawn) [cetirizine] | a significant number of patients do not experience recurrence of symptoms of depression | A significant number of patients experience a reduction of their symptoms of depression | a significant number of patients do not experience recurrence or worsening of symptoms of depression | a significant number of patients do not experience recurrence of symptoms of depression | a significant number of patients do not experience recurrence of symptoms of depression | A significant number of patients experience a reduction of their symptoms of depression | A significant number of patients experience a reduction of their symptoms of depression | a significant number of patients do not experience recurrence or worsening of symptoms of depression | a significant number of patients do not experience recurrence or worsening of symptoms of depression
2 | CCOC(=O)N1CCC(=C2c3ccc(Cl)cc3CCc3cccnc32)CC1 [loratadine] | a significant number of patients do not experience recurrence of symptoms of depression | A significant number of patients experience a reduction of their symptoms of depression | a significant number of patients do not experience recurrence or worsening of symptoms of depression | a significant number of patients do not experience recurrence of symptoms of depression | a significant number of patients do not experience recurrence of symptoms of depression | A significant number of patients experience a reduction of their symptoms of depression | A significant number of patients experience a reduction of their symptoms of depression | a significant number of patients do not experience recurrence or worsening of symptoms of depression | a significant number of patients do not experience recurrence or worsening of symptoms of depression
